The results in this text go back to patent US12390437B2, “Itaconic acid derivatives and uses thereof intreating an inflammatory disease or a disease associated with an undesirable immune response” (Sitryx Therapeutics Limited, priority 2019, dated 2025).

Structures can show the parent of a compound that is named as a salt.

One may read the Emax as the maximal effect, on the per cent scale that the assay sets. As a reminder, the EC50 is the concentration giving half of the maximal effect. A higher EC50 goes with a less potent agent. As a reminder, the IC50 is the concentration at which inhibition is half-maximal. Higher therefore signals a need for much substance.

What all share (type): cell-based
Assay [1] has as its system NQO1. Kind of assay: NQO1 enzyme activation assay as a readout of NRF2 activation in THP-1 cells. The following applies: Homo sapiens; for Emax: THP-1, percentage activation at top concentration, normalised to DMF (100%) and vehicle controls; for EC50: differentiated THP-1 cells, LPS, 48 hr. The procedure:
NQO1 Enzyme Activation Assay as a Readout of NRF2 Activation in THP-1 Cellular Background
NAD(P)H dehydrogenase [quinone] […] Induction of this gene is concomitant with the inhibition of proinflammatory cytokine transcription and suppression of the inflammatory response (Kobayashi E. H. et al., 2016). The NQO1 enzyme activation activities of compounds of formula (IW-1) were determined using a cellular based NQO1 activation assay (Abcam). The NQO1 activation assay was run in differentiated THP-1 cells (a human monocyte-like cell line) as described below. All reagents described are from Sigma-Aldrich unless specified otherwise. Compounds were prepared as 10 mM DMSO stocks.
THP-1 cells were expanded as a suspension up to 80% confluence in appropriate growth medium. Cells were harvested, suspended, treated with phorbol 12-myristate 13-acetate (PMA) and plated according to the cell density required for each plate format over a 72 hr period (37° C./5% CO2).
Following 72 hrs of THP-1 cell incubation, cellular medium was removed and replaced with fresh media. Working concentrations of compounds were prepared and pre-incubated for 30 minutes (37° C./5% CO2). Compound treatment was then applied to the PMA treated THP-1 cell plate followed by LPS treatment. A ‘low’ (DMSO vehicle only) control and ‘high’ (designated concentration of dimethyl fumarate) was applied to each plate at the point of compound treatment. Cells were subsequently incubated for a 48 hr period (37° C./5% C02) after which all NQO1 assay reagents were prepared according to the manufacturer's instructions. NQO1 extraction buffer was applied to PBS washed THP-1 cells and incubated on ice for 15 minutes to prepare THP-1 lysates for the NQO1 activity assay. THP-1 lysates were diluted 1:5 with PBS and treated with a 1:1 volume of kit prepared NQO1 Reaction Buffer. Absorbance was subsequently measured kinetically on an appropriate reader over a 6 minute period.
For activation determination, the fold change in response per well was determined by first calculating the average NQO1 activation data for the vehicle control and then dividing the individual well response by the averaged NQO1 response for the vehicle control as shown below: Fold change=(Sample value)/MeanMin Where ‘Min’=vehicle control only
The relative 50% activation concentration (EC50) was determined from the resulting fold change response curve. The maximum efficacy (Emax) was reported as the percentage activation calculated at the top concentration of compound used in the titration applied. If a full curve was unattainable preventing a correct curve fit, the Emax value was extrapolated using existing curve data. All percentage activation data were normalised to the DMF and vehicle controls, meaning the Emax represents the percentage […] achieved by a compound at a particular concentration relative to that achieved by DMF (set as the ‘High’ control and therefore representative of 100% activation).

The subject of assay [2] is IL-1β cytokine output from isolated primary HMDMs. Kind of assay: Primary human monocyte derived macrophages (HMDMs) AlphaLISA IL-1β cytokine assay. Particulars: primary HMDMs (M-CSF 7 day), LPS 24 hr then Nigericin 1 hour. The procedure:
Measuring Inhibitory Effects on IL-1β Cytokine Output from Isolated Primary HMDMs
The cytokine inhibition profiles of compounds of formula (IW-1) were determined in a monocyte differentiated macrophage cell assay. All assays were performed in RPMI-1640 growth medium (Gibco), supplemented with heat-inactivated fetal bovine serum (FBS) and 1% penicillin-streptomycin unless specified otherwise. The IL-1β cytokine inhibition assay was run in a background of isolated primary HMDM cells as described below. All reagents described were from Sigma-Aldrich unless specified otherwise. Compounds were prepared as 100 mM DMSO stocks.
Primary peripheral blood mononuclear cells (PBMCs) were isolated from human whole blood. Following PBMC isolation, a CD14^+ monocyte isolation step was conducted whereby CD14^+ magnetic beads (Miltenyi Biotec) were incubated for 15 minutes with the PBMC suspension that was previously treated with ice cold T-cell isolation buffer (PBS, 0.5% BSA, 2 mM EDTA). Following bead incubation, the treated cell suspension was passed through a magnetic separation column designed to positively select for magnetically labelled cells. The isolated CD14^+ monocytes were subsequently plated at an appropriate cell density and treated fora 7 day period with M-CSF (BioLegend) to drive macrophage differentiation. Following the differentiation period, working concentrations of compounds were prepared separately in RPMI-1640 only growth medium and pre-incubated with the cells for 30 minutes (37° C./5% CO2). Following the 30 minute compound pre-incubation, primary HMDMs were treated with an appropriate concentration of LPS and subsequently incubated for a 24 hr period (37° C./5% CO2). Nigericin was added and incubated for 1 hour prior to harvesting primary HMDM supernatants and collected in separate polypropylene 96-well holding plates prior to commencing the AlphaLISA cytokine assay.
Reagents from the IL-1β commercial kit (Perkin Elmer) was prepared and run according to the manufacturer's instructions. Subsequently, fluorescence signal was measured in a microplate reader (EnVision® Multilabel Reader, Perkin Elmer).
(§1) Percentage inhibition was calculated per cytokine by normalising the sample data to the high and low controls used within each plate (+/−LPS respectively). Percentage inhibition was then plotted against compound concentration and the 50% inhibitory concentration (IC50) was determined from the resultant concentration-response curve.
For orientation: Bead proximity is the source of the signal in Alpha formats.

For assay [3], the system named is IL-1β cytokine output from isolated primary human monocytes. In words: Primary human monocyte AlphaLISA IL-1β cytokine assay. The following applies: CD14+ primary human monocytes, LPS 24 hr then Nigericin 1 hour; for IC50: Monocyte. The procedure: Measuring Inhibitory Effects on IL-1β and IL-6 Cytokine Output from Isolated Primary Human Monocytes
The cytokine inhibition profiles of compounds of formula (IW-1) were determined in a CD14^+ isolated primary human monocyte cell assay. All assays were performed in RPMI-1640 growth medium (Gibco), supplemented with heat-inactivated fetal bovine serum (FBS) and 1% penicillin-streptomycin unless specified otherwise. The IL-1β and IL-6 cytokine inhibition assays were each run in a background of isolated primary human monocyte cells as described below. All reagents described were from Sigma-Aldrich unless specified otherwise. Compounds were prepared as 100 mM DMSO stocks.
Primary peripheral blood mononuclear cells (PBMCs) were isolated from human whole blood. Following PBMC isolation, a CD14^+ monocyte isolation step was conducted whereby CD14^+ magnetic beads (Miltenyi Biotec) were incubated for 15 minutes with the PBMC suspension that was previously treated with ice cold T-cell isolation buffer (PBS, 0.5% BSA, 2 mM EDTA). Following bead incubation, the treated cell suspension was passed through a magnetic separation column designed to positively select for magnetically labelled cells. The isolated CD14^+ monocytes were subsequently plated at the appropriate cell density for the assay, prior to compound treatment on the day of plating. Working concentrations of compounds were prepared separately in RPMI-1640 only growth medium and pre-incubated with the cells for 30 minutes (37° C./5% CO2). Following the 30 minute compound pre-incubation, primary monocytes were treated with an appropriate concentration of LPS and subsequently incubated for a 24 hr period (37° C./5% CO2). An appropriate final concentration of Nigericin was then dispensed into the primary monocyte plates and incubated for 1 hour (37° C./5% CO2) before monocyte supernatants were harvested and collected in separate polypropylene 96-well holding plates prior to commencing the AlphaLISA cytokine assay.
Reagents from each of the IL-1β and IL-6 commercial kits (Perkin Elmer) were prepared and run according to the manufacturer's instructions. Subsequently, fluorescence signal was measured in a microplate reader (EnVision® Multilabel Reader, Perkin Elmer).
as §1

In assay [1], `C=C(CC(=O)OCCCCCCCC)C(=O)OC1COC1` [Example 4, 4-octyl 1-(oxetan-3-yl) 2-methylenesuccinate] came in with a maximal effect (Emax) of 171% and an EC50 of 13.6 µM. For the same compound, in assay [2], inhibition was half-maximal at 0.4 µM (IC50).

`C=C(CC(=O)O[C@H](C)CCCCCC)C(=O)OCC(=O)O` [Example 112, (R)-2-((2-methylene-4-(octan-2-yloxy)-4-oxobutanoyl)oxy)acetic acid] showed an IC50 in assay [3] of 13.7 µM.

In assay [1], `C=C(CC(=O)OCCCCCCCC)C(=O)OCCC#N` [Example 1, 1-(2-cyanoethyl) 4-octyl 2-methylenesuccinate] showed an Emax of 167% and an EC50 of 6.9 µM. Also, in assay [3], the IC50 was 8.9 µM. In assay [2], this compound displayed an IC50 of 0.4 µM.

In assay [1], `C=C(CC(=O)OCCCCCCCC)C(=O)OCCC(F)(F)F` [Example 3, 4-octyl 1-(3,3,3-trifluoropropyl) 2-methylenesuccinate] came in with a maximal response (Emax) of 91% and a concentration for a half-maximal effect (EC50) of 14.7 µM. Moreover, in assay [3], the “IL-1β (IC50)” value is given as “lower IC5s than dimethyl fumarate” and the IC50 was found to be 3.9 µM. In assay [2], this compound displayed a half-inhibitory concentration (IC50) of 0.7 µM.

In the case of `C=C(CC(=O)OCCCCCCCC)C(=O)OCCN1C(=O)CCC1=O` [Example 9, 1-(2-(2,5-dioxopyrrolidin-1-yl)ethyl) 4-octyl 2-methylenesuccinate], in assay [1], the maximal effect (Emax) came out at 98% and the EC50 was 9.8 µM. In assay [3], the “IL-1β (IC50)” value is reported as “lower IC5s than dimethyl fumarate” and the IC50 came to 3.3 µM. The 50% inhibitory concentration (IC50) in assay [2] came out at 1.2 µM.

On to `C=C(CC(=O)OC1CCCCCCC1)C(=O)OCC(=O)O` [Example 90, 2-((4-(cyclooctyloxy)-2-methylene-4-oxobutanoyl)oxy)acetic acid], for which the IC50 in assay [3] came out at 81.3 µM.

`C=C(CC(=O)O[C@H](C)CCCCCC)C(=O)OCCC(=O)O` [Example 88, (R)-3-((2-methylene-4-(octan-2-yloxy)-4-oxobutanoyl)oxy)propanoic acid]: the IC50 in assay [3] came to 17.3 µM.

For the compound `C=C(CC(=O)OC)C(=O)OC` [dimethyl itaconate, reference compound], in assay [1], the Emax came out at 144% and a half-maximal effect (EC50) was put at 74.1 µM.

Turning to `C=C(CC(=O)OCCCCCCCC)C(=O)OCCS(C)(=O)=O` [Example 2, 1-(2-(methylsulfonyl)ethyl) 4-octyl 2-methylenesuccinate], in assay [1], the Emax turned out to be 213% and a half-maximal effect (EC50) was put at 4.6 µM. For the same compound, in assay [3], the “IL-1β (IC50)” value is given as “lower IC5s than dimethyl fumarate” and the IC50 amounted to 3.6 µM. It took 0.3 µM to reach half-maximal inhibition in assay [2] (IC50).

In assay [1], `COC(=O)/C=C/C(=O)OC` [dimethyl fumarate, reference compound] had an Emax of 126% and a concentration for a half-maximal effect (EC50) of 12.9 µM. Also, inhibition in assay [3] was half-maximal at 8.5 µM (IC50). 2 µM corresponded to half-maximal inhibition in assay [2] (IC50).
